Experimental data taken from patent US11414387B2, “Oxoacridinyl acetic acid derivatives and methods of use” (Stingthera, Inc., priority 2017, dated 2022).
pIC50: −log10 of the molar value.

How the values were obtained:
[1] = target: hSTING-WT (Homo sapiens (Human), UniProt Q86WV6, H232R); test: Radiometric filtration binding competition assay, hSTING-WT
[2] = target: T1, hSTING-HAQ (Homo sapiens (Human), UniProt Q86WV6, G230A/H232R/R293Q); test: Radiometric filtration binding competition assay, hSTING-HAQ
T1 sequence (Q86WV6 140-379 G230A/H232R/R293Q): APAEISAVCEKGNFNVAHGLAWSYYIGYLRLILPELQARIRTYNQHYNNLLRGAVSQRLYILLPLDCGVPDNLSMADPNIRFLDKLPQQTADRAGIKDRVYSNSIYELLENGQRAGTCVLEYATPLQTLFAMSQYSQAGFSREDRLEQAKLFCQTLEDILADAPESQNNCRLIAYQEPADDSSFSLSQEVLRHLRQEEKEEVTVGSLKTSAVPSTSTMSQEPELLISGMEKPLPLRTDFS
Experimental: (§1) A radiometric filtration binding competition assay was performed to quantify the binding affinity of compounds of the present application for the human or mouse STING protein, or associated HAQ human isoform. […] The resulting dose response was fit by non-linear regression to determine an IC50 value, from which a Ki value for each compound was extrapolated.
(§2) The resulting complexes were then filtered, dried, and scintillation fluid was added and the remaining radio signal was measured to determine the degree of compound ligand inhibition. This assay format was optimized for both the WT and HAQ isoforms of the human protein and the mouse orthologue protein.
(§3) Probe Concentration: Minimum concentration that achieved max assay window • g. Assay Format: Scintillation Proximity Bead or Filtration Binding Plate • h. […] Assay incubation times for successive incubation steps
(§4) WT-hSWAT: WT_FBA_HIS-SUMO-hSWAT IC50 (μM) (“WT”=Wild-type); HAQ-hSWAT: HAQ_FBA_HIS-SUMO-hSWAT IC50 (μM) (“HAQ”=human HAQ allele of STING protein); and WT-mSWAT: MOUSE_FBA_HIS-SUMO-mnSWAT IC50 (μM) which is the mouse isoform of STING protein.

[3] = target: hSTING-R232 (Homo sapiens (Human), UniProt Q86WV6, H232R); test: STING differential scanning fluorimetry (DSF) assay, WT human STING; conditions: WT (R232) human STING aa140-379, net shift in melting temperature
Chain of hSTING-R232 (Q86WV6 140-379 H232R): as the sequence (Q86WV6 140-379 G230A/H232R/R293Q) above, with A91G, Q154R counted along it
Experimental: (§5) A STING DSF assay was performed to determine protein thermostability shift in response to small molecule ligand binding. A STING thermostability shift assay based on differential scanning fluorimetry was used to measure (1) the net shift in melting temperature (ΔTm)between the apo and ligand-bound states of the STING protein and (2) the concentration of the thermal denaturation transition (EC50) as a surrogate measure of binding affinity (K). […] Protein in assay buffer was transferred to a 384 well plate and incubated with the hydrophobic fluorescent dye SYBR Orange. A temperature ramp was applied to the plate and the resulting dye fluorescence was plotted as a function of temperature. The first derivative of this function (dF/dT) was then used to extrapolate the melting temperature of the protein at various concentrations of compound and determine the thermal denaturation profile of a protein/compound complex.
(§6) • 1. Protein construct (affinity tag removal vs SUMO-fusion construct) • 2. Protein concentration • 3. Dye concentration • 4. Buffer • 5. Thermal ramp velocity • 6. DMSO tolerance • 7. Compound titration parameters • 8. […] 5 μM purified Target STING Protein • 3. 8 μM Sypro Orange Dye • 4. Buffer: 100 mM NaCl, 30 mM HEPES, pH 7.5 • 5. Thermal Ramp: 0.5° C./min • 6. <1% DMSO • 7. 11 point, 2 fold dilution, duplicate, 300 μM high concentrations • 8.

[4] = target: STING protein (Homo sapiens (Human), UniProt Q86WV6, H232R); test: Cell based reporter assay of IRF activation (IRF-luciferase), THP1-dual-KI R232; conditions: read-out: THP1-dual-KI R232_IRF(Luciferase)_Activity Maximum measured (%)
Chain of STING protein (Q86WV6 whole entry H232R): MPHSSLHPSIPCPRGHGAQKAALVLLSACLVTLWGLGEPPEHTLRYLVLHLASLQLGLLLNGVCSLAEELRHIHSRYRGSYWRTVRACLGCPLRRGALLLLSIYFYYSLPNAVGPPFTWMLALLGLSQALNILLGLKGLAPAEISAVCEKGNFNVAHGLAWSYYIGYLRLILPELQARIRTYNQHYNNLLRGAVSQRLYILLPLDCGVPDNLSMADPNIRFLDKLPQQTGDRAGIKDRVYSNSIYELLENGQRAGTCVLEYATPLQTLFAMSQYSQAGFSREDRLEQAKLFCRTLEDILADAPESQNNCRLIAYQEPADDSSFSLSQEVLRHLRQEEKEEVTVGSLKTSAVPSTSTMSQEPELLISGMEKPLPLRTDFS

[5] = target: mSTING (Mus musculus, UniProt Q3TBT3); test: Radiometric filtration binding competition assay, mSTING
Experimental: as §1, §2, §3, §4

[6] = target: mSTING-R232 (Mus musculus, UniProt Q3TBT3); test: STING differential scanning fluorimetry (DSF) assay, mouse STING; conditions: net shift in melting temperature
Experimental: as §5, §6

[7] = target: T1, hSTING-HAQ; test: STING differential scanning fluorimetry (DSF) assay, HAQ human STING; conditions: HAQ human STING aa140-379, net shift in melting temperature
Experimental: as §5, §6

[8] = target: hSTING-CTD (Homo sapiens (Human), UniProt Q86WV6); test: Human STING protein FP competition concentration response assay; format: binding
Chain of hSTING-CTD (Q86WV6 135-379): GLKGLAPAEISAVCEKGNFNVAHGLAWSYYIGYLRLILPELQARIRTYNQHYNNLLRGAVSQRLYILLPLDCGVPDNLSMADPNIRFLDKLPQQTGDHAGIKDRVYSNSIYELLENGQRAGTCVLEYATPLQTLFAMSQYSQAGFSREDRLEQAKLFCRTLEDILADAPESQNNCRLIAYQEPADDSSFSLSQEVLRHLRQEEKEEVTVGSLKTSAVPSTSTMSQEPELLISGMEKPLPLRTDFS
How it was run: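 Compound, serially diluted 2-fold over 14 concentrations, competes with 2′-Fluo-AHC-c-di-GMP (30 nM) for binding to hSTING-CTD (10 uM) in PBS with 3.35% DMSO at room temperature for 10-20 min. Anisotropy change gives IC50 by sigmoidal four-parameter regression.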

[9] = target: mSTING-CTD (Mus musculus (Mouse), UniProt Q3TBT3); test: Mouse STING protein FP competition concentration response assay; format: binding
Chain of mSTING-CTD (Q3TBT3 134-378): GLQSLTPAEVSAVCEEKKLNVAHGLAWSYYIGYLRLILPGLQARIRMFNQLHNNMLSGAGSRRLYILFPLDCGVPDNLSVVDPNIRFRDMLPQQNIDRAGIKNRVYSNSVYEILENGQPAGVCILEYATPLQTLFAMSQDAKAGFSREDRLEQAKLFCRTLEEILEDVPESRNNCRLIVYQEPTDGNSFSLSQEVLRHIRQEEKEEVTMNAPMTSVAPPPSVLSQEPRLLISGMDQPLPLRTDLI
Experimental: A validated STING ligand, such as c-di-GMP, which is labeled with a read-out signal (e.g., a fluorescence signal such as fluorescein), is mixed with STING-CTD (e.g., mouse STING-CTD or human STING-CTD) with or without the presence of a compound of the present application. Changes in the read-out signal are measured (e.g., by fluorescence anisotropy) to determine the binding of the compound to STING-CTD.
Fluorescein labeled c-di-GMP was mixed with mSTING-CTD with or without the presence of a compound of the present application in PBS in black 384-well plates (10 μL per well). The fluorescence anisotropy was determined on a PerkinElmer EnVisions multi-mode plate reader. The plate can be read immediately after mixing the reagents or after a few hours without change of signals.
• 1) 6×his-sumo-mSTING (Supplier: HDB) • 2) 2′-Fluo-AHC-c-di GMP (BIOLOG #F009) • 3) 23-cGAMP (BIOLOG #C161) • 4) DMXAA (InvivoGen #tlrl-dmx) • 5) DMSO (Sigma. #D5879-100 mL) • 6) 10×PBS(HDB #MCP-020) • 7) Assay plate, 384-well black plate, solid black bottom (Greiner #784076) • 8) Compound dilution intermediate plate, 384 LDV plate (Labcyte #LP-0200) • 9) Liquid handler, ECHO550 (Labcyte) • 10) Liquid handler, Bravo (Aglient) • 11) Reader, Envision (PerkinElmer) • 12) Centrifuge (Eppendorf) • 13) Multichannel Pipette (Raining) • 14) 10 ml Reservoir (Corning) • 15) 15 ml centrifuge tube (Corning) • 16) Adhesive Plate seals (BioRad) Compound Preparation • a) Containers of each compound were centrifuged at 1000 rpm for 5 min. • b) Compounds were dissolved in DMSO at 30 mM. • c) Compounds were sufficiently vortexed, and centrifuged at 1000 rpm for 1 min. • d) 16 uL of the compound solution was transferred into a LDV Compound Plate. • e) 2-fold serial dilutions of the compound solution were made with DMSO, and 14 concentrations were made in the 384-well LDV Compound Plate. • f) The LDV plate was spun at 1000 rpm for 60 sec and sealed with foil (stored at −20° C. if not used immediately). • g) 335 nL of each compound from the LDV Compound Plate was transferred to Assay Plate (ECHO550). Probe Preparation • a) 200 uM probe stock (2′-Fluo-AHC-c-diGMP) was diluted by dd2O to 6 uM working concentration. • b) 10-12 uL 6 uM working solution of probe was transferred into the LDV plate. • c) 50 nL per well 6 uM working solution of probe was transferred from the LDV plate to each well of the empty Assay Plate (Greiner 784076) by ECHO550 Buffer mode. • d) Probe final concentration was 30 nM when assay system was 10 uL. • e) The Assay Plate was spun at 1000 rpm for 1 min. Compound Addition • a) After the LDV Compound Plate was prepared, 100 nL compound (ECHO550 DMSO mode) was transferred from the LDV Compound Plate into the Assay Plate (Greiner 784076) containing 50 nL probe in each well according to the Assay Plate layout. • b) DMSO final concentration was 1% when assay system was 10 uL. • c) The Assay Plate was spun at 1000 rpm for 1 min. Protein Addition • a) Aliquot of 6×his-sumo-mSTING protein was thawed on ice, briefly to generate uniform solution. • b) 66 uM stock protein was diluted in 1×PBS assay buffer to generate 8 uM final solutions. • c) For test compound and ZPE wells, 10 μL per well of 8 uM protein solutions was added into the Assay Plate containing both the probe and test compounds or DMSO using multichannel pipette. • d) For HPE wells, 10 µL/well of 1×PBS assay buffer instead of protein was added into the Assay Plate containing both the probe and DMSO using multichannel pipette. • e) The Assay Plate was spun at 1000 rpm for 1 min. • f) The Assay Plate was incubated at r.t. for 10-20 min.
The EnVision plate reader was used to record the FA value of each well immediately after mixing the reagents or after a few hours without change of signals.
The raw data and calculated data (Fluorescence anisotropy (FA)) was exported from the EnVision reader. […]

Chain of hSTING-WT (Q86WV6 140-379 H232R): as the sequence (Q86WV6 140-379 G230A/H232R/R293Q) above, with A91G, Q154R counted along it

SMILES	pIC50 [1]	pIC50 [2]	WT_DSF_hSWAT Tm Shift (° C.) [3]	Emax [4] [%]	pIC50 [5]	MOUSE DSF_6xHIS-SUMO Tm Shift (° C.) [6]	HAQ_DSF_hSWAT Tm Shift (° C.) [7]	pIC50 [8]	pIC50 [9]
C#Cc1c(Cl)ccc2c(=O)c3ccccc3n(CC(=O)O)c12 [Compound 197]	< 3.52	< 3.52	C (“C” = 2-7° C,)	< 5					
CC(C)c1ccc2c(=O)c3ccc(Cl)c(Br)c3n(CC(=O)NS(C)(=O)=O)c2c1 [Compound 350]	3.52 to 4.00		C (“C” = 2-7° C,)	< 5			C (“C” = 2-7° C,)		
CSc1c(Cl)ccc2c(=O)c3ccccc3n(CC(=O)O)c12 [Compound 212]	3.52 to 4.00	< 3.52	C (“C” = 2-7° C,)		3.52 to 4.00				
Cc1ccc(S(=O)(=O)NC(=O)Cn2c3cc(C(C)C)ccc3c(=O)c3ccc(Cl)c(Cl)c32)cc1 [Compound 351]	4.00 to 4.70		A (“A” < 0° C.)	< 5			A (“A” < 0° C.)		
Cc1cc2c(=O)c3ccc(Cl)c(Cl)c3n(CC(=O)O)c2cc1C [Compound 94]								3.30 to 4.00	4.00 to 4.30
Cc1c(Cl)ccc2c(=O)c3ccccc3n(CC(=O)O)c12 [Compound 98]								3.00 to 3.30	4.30 to 5.00
CCc1ccc2c(=O)c3ccc(Cl)c(Cl)c3n(CC(=O)O)c2c1 [Compound 82]								3.30 to 4.00	4.00 to 4.30
Cc1ccc(-c2ccc3c(=O)c4ccc(Cl)c(Cl)c4n(CC(=O)O)c3c2)cc1Cl [Compound 164]	4.00 to 4.70		B (“B” = 0-2° C.)			D (“D” > 15° C.)	B (“B” = 0-2° C.)		
O=C(O)Cn1c2ccccc2c(=O)c2ccc3c(c21)CCCC3 [Compound 9]								3.00 to 3.30	> 5.00
O=C(O)Cn1c2ccccc2c(=O)c2ccc(Cl)c(Cl)c21 [Compound 13]	< 3.52		B (“B” = 0-2° C.)		< 3.52	C (“C” = 5-15° C.)		3.30 to 4.00	4.30 to 5.00
O=C(O)Cn1c2cc(NC3CCCCC3)ccc2c(=O)c2ccc(Cl)c(Cl)c21 [Compound 59]								> 4.00	4.30 to 5.00
COc1ccc2c(=O)c3ccc(C)cc3n(CC(=O)O)c2c1 [Compound 34]								< 3.00	4.30 to 5.00
CC(C)c1ccc2c(=O)c3ccc(Cl)c(C(F)(F)F)c3n(CC(=O)O)c2c1 [Compound 192]	4.00 to 4.70	4.00 to 4.70	A (“A” < 0° C.)	< 5	3.52 to 4.00	B (“B” = 0-5° C.)			

Second part, the compound after the results:

pIC50 [1]	pIC50 [2]	WT_DSF_hSWAT Tm Shift (° C.) [3]	Emax [4] [%]	pIC50 [5]	MOUSE DSF_6xHIS-SUMO Tm Shift (° C.) [6]	HAQ_DSF_hSWAT Tm Shift (° C.) [7]	pIC50 [8]	pIC50 [9]	SMILES
4.00 to 4.70	4.00 to 4.70	C (“C” = 2-7° C,)	> 50	> 4.70	D (“D” > 15° C.)				O=C(O)Cn1c2cc(Nc3ncccn3)ccc2c(=O)c2ccc(Cl)c(Cl)c21 [Compound 216]
4.00 to 4.70		B (“B” = 0-2° C.)	< 5		D (“D” > 15° C.)	B (“B” = 0-2° C.)			O=C(O)Cn1c2cc(-c3cccc(C(F)(F)F)c3)ccc2c(=O)c2ccc(Cl)c(Cl)c21 [Compound 161]
4.00 to 4.70	4.00 to 4.70	C (“C” = 2-7° C,)	< 5	> 4.70		D (“D” > 7° C.)			O=C(O)Cn1c2cc(-c3ccc(O)cc3)ccc2c(=O)c2ccc(Cl)c(Cl)c21 [Compound 223]
> 4.70	4.00 to 4.70	D (“D” > 7° C.)		> 4.70					COc1c(Cl)ccc2c(=O)c3ccc(C4=CCCCC4)cc3n(CC(=O)O)c12 [Compound 219]
> 4.70	4.00 to 4.70	D (“D” > 7° C.)	> 50	> 4.70		D (“D” > 7° C.)			COc1c(Cl)ccc2c(=O)c3ccc(C(C)(C)C)cc3n(CC(=O)O)c12 [Compound 204]
> 4.70	4.00 to 4.70	D (“D” > 7° C.)	> 50	4.00 to 4.70		D (“D” > 7° C.)			COc1c(Cl)ccc2c(=O)c3ccc(C4CCCCC4)cc3n(CC(=O)O)c12 [Compound 220]
4.00 to 4.70		C (“C” = 2-7° C,)	5 to 25	> 4.70	D (“D” > 15° C.)	C (“C” = 2-7° C,)			O=C(O)Cn1c2cc(C3CCCC3)ccc2c(=O)c2ccc(Cl)c(Cl)c21 [Compound 113]
4.00 to 4.70		B (“B” = 0-2° C.)	5 to 25		D (“D” > 15° C.)	B (“B” = 0-2° C.)			CC1(C)CCC(c2ccc3c(=O)c4ccc(Cl)c(Cl)c4n(CC(=O)O)c3c2)CC1 [Compound 160]
4.00 to 4.70	3.52 to 4.00	C (“C” = 2-7° C,)	< 5	4.00 to 4.70					O=C(O)Cn1c2cc(-c3ccccc3)ccc2c(=O)c2ccc(Cl)c(Br)c21 [Compound 177]
> 4.70	4.00 to 4.70	D (“D” > 7° C.)	> 50			D (“D” > 7° C.)			O=C(O)Cn1c2cc(Nc3ccc(F)cc3F)ccc2c(=O)c2ccc(Cl)c(Cl)c21 [Compound 221]
> 4.70	4.00 to 4.70	D (“D” > 7° C.)	> 50	> 4.70	D (“D” > 15° C.)				O=C(O)Cn1c2cc(Nc3ccccc3)ccc2c(=O)c2ccc(Cl)c(Cl)c21 [Compound 181]
